Results on 2 compounds are retold here after US10604476B2, “Fluorinated amide derivatives and their uses as therapeutic agents” (Trillium Therapeutics Inc., priority 2015, dated 2020).

For orientation: ED50 means the midpoint of the dose-response relation.

Experiment [1] deals with mechanical allodynia. Briefly: Sciatic ligation model in rats (neuropathic pain). It is filed as in vivo, rat. As to conditions: 23 mg/kg i.p. The source says: Animals will be anesthetized with sodium pentobarbital and the depth of anesthesia monitored by their response to a tail pinch and observation of the depth of respiration. Sterile technique will be used throughout the surgery. The upper thigh will be shaved and wiped off with ethanol and betadine. A small incision will then be made in the skin. The underlying muscle of the upper thigh will be separated and the sciatic nerve exposed. The nerve is separated from the surrounding connective tissue and slightly elevated by a pair of fine, curved forceps. Approximately ⅓ to ½ of the nerve is tied off by passing a needle (7.0) and nylon suture through the nerve. The muscle and skin incision are closed off separately with 5.0 suture and the animals kept warm until they have recovered from the anesthesia. […] The rats will be closely monitored daily for the development of infection or untoward effects of the surgery in which case the animals will be immediately euthanized. […] After 30-60 minutes in which to acclimate, a baseline mechanical sensitivity is determined. […] This is repeated until a 50% threshold for withdrawal can be determined. […] Testing will be conducted at the time-to-peak effect of the AED as determined in the acute seizure model (Z. Seltzer et al. Pain 43 1990, 205-218).

Experiment [2] concerns mechanical allodynia. Briefly: Spinal nerve injury (SNI) model, Von Frey test. As to conditions: 60 mg/kg i.p. It is filed as in vivo, rat. The source says: The SNI model of neuropathic pain was developed in rats using the procedure described by Decostered and Woolf, Pain 2000, 87: 149-158. Under isoflurane anesthesia, the skin on the lateral surface of the thigh was incised and a section was made directly through the biceps femoris muscle exposing the sciatic nerve and its three terminal branches: the sural, common peroneal and tibial nerves. The common peroneal and the tibial nerves were tight-ligated with 6-0 suture and sectioned distal to the ligation, removing 2-4 mm of the distal nerve stump. Extreme care was taken to avoid any contact with or stretching of the intact sural nerve. Following surgery, hemostasis was confirmed and the muscles were sutured in layers using 4-0 suture and the skin was closed with 4-0 suture and metal clips. Male, Sprague-Dawley rats were used. Testing of compounds was done 21 days post-operatively. After initial basal readings were taken, the test compound or vehicle was administered. The readings were taken again 30, 60 and 180 min after the compound/vehicle administration. Both the control (uninjured) and the SNI paw were tested. The presence of mechanical allodynia was assessed using the Dynamic Plantar Aesthesiometer (Ugo Basile, Italy) which is a modified version of the Von Frey Hair test. […] A single reading was taken per time point. […]

The test system of the next experiment is audiogenic seizure (AGS). Description: Frings AGS-susceptible mouse model. The format is in vivo. The settings on record: ip, read-out: ED50, block of AGS. An excerpt: Frings audiogenic seizure (AGS)-susceptible mice model examines the ability of an investigational drug to alter the onset and/or severity of seizures in a genetic mouse model of seizure susceptibility. Mice are genetically susceptible to sound-induced reflex seizures. Their seizure phenotype is characterized by wild running, loss of righting reflex, tonic flexion, and tonic extension in response to high-intensity sound stimulation. […] For example, the prototypical anticonvulsants phenytoin and ethosuximide display widely divergent clinical spectrums in humans, but are both active against sound-induced seizures in mice. Yet, the preclinical utility of this animal model rests in the useful information that can be obtained within a genetically susceptible model of seizures. Further, efficacy in this model provides proof of concept of brain bioavailability following systemic administration. […] At the time of peak effect as determined in the MES test (Test 4 in CF1 mice), individual mice are placed in a round plexiglass jar (diameter, 15 cm; height, 18 cm) and exposed to a sound stimulus of 110 decibels (11 KHz) delivered for 20 sec. […] The severity of a seizure may also be quantitated by assigning a numerical score to the observed response, e.g. no response—0; wild running for <10 sec—1; wild running for >10 sec—2; clonic seizure—3; forelimb extension/hind limb flexion—4; tonic seizure—5.

The structures appear in SMILES notation.

For `NC(=O)COc1cc(C(F)(F)F)cc(C(F)(F)F)c1` [I(F), 2-[3,5 bis(trifluoromethyl)-phenoxy]acetamide;], the “mechanical allodynia compared to vehicle controls” value in the experiment with mechanical allodynia [1] is “significant decrease”. Besides, the “mechanical allodynia in the denervated paw, Von Frey test” value with mechanical allodynia [2] is “effective”.
`C[C@@H](Oc1cc(Cl)cc(C(F)(F)F)c1)C(N)=O` [I(D), (2R)-2-[3-chloro-5-(trifluoromethyl)-phenoxy]propanamide]: in the experiment on audiogenic seizure (AGS), the ED50 worked out at 28.9 ± 3.08 mg/kg.
